PubChem BioAssay (NCI)
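Five compound concentrations were applied to cells in 96-well plates for 48 hours; endpoints were derived by simple linear interpolation of the resulting dose-response curve. The concentration for 50% growth inhibition is given as GI50. TGI: total growth inhibition.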

Legend:
Experiment in all cases: NCI anticancer screen, dose series, 48 h
NCI-H226 lung = test system: NCI-H226 lung
U251 CNS = test system: U251 CNS
SK-OV-3 ovarian = test system: SK-OV-3 ovarian
KM12 colon = test system: KM12 colon
SNB-78 CNS = test system: SNB-78 CNS
IGROV1 ovarian = test system: IGROV1 ovarian
EKVX NSCLC = test system: EKVX NSCLC
T-47D breast = test system: T-47D breast
RPMI-8226 leukemia = test system: RPMI-8226 leukemia
HCT-15 colon = test system: HCT-15 colon
HS 578T breast = test system: HS 578T breast
CAKI-1 renal = test system: CAKI-1 renal
LOX IMVI melanoma = test system: LOX IMVI melanoma
RXF 393 renal = test system: RXF 393 renal
NCI-H522 lung = test system: NCI-H522 lung
DMS 273 small cell lung = test system: DMS 273 small cell lung
OVCAR-8 ovarian = test system: OVCAR-8 ovarian
SR leukemia = test system: SR leukemia
OVCAR-5 ovarian = test system: OVCAR-5 ovarian
M14 melanoma = test system: M14 melanoma
M19-MEL melanoma = test system: M19-MEL melanoma
HOP-62 NSCLC = test system: HOP-62 NSCLC
MALME-3M melanoma = test system: MALME-3M melanoma
HT29 colon = test system: HT29 colon
ACHN renal = test system: ACHN renal
XF 498 CNS = test system: XF 498 CNS
SK-MEL-28 melanoma = test system: SK-MEL-28 melanoma
BT-549 breast = test system: BT-549 breast
SNB-75 CNS = test system: SNB-75 CNS
PC-3 prostate = test system: PC-3 prostate
TK-10 renal = test system: TK-10 renal
MOLT-4 leukemia = test system: MOLT-4 leukemia
LXFL 529 NSCLC = test system: LXFL 529 NSCLC
HOP-92 NSCLC = test system: HOP-92 NSCLC
CCRF-CEM leukemia = test system: CCRF-CEM leukemia
NCI/ADR-RES ovarian = test system: NCI/ADR-RES ovarian
HOP-18 NSCLC = test system: HOP-18 NSCLC
SN12C renal = test system: SN12C renal
MDA-MB-231 breast = test system: MDA-MB-231 breast
UO-31 renal = test system: UO-31 renal
DU-145 prostate = test system: DU-145 prostate
SK-MEL-2 melanoma = test system: SK-MEL-2 melanoma
OVCAR-3 ovarian = test system: OVCAR-3 ovarian
DMS 114 small cell lung = test system: DMS 114 small cell lung
A498 renal = test system: A498 renal
SF-295 CNS = test system: SF-295 CNS
COLO 205 colon = test system: COLO 205 colon
OVCAR-4 ovarian = test system: OVCAR-4 ovarian
DLD-1 colon = test system: DLD-1 colon

## O=C1C=CC=C[C@@H]2C(C3OCCO3)CC[C@H]12.[C-]#[O+].[C-]#[O+].[C-]#[O+].[Fe] (some centres not stated)
NCI-H226 lung
  GI50: > 83.5 µM
  TGI: > 100 µM
U251 CNS
  GI50: 44.7 µM
  TGI: > 82.5 µM
SK-OV-3 ovarian
  GI50: > 96 µM
  TGI: > 100 µM
KM12 colon
  GI50: 48 µM
  TGI: > 100 µM
SNB-78 CNS
  GI50: 22.8 µM
  TGI: 66 µM
IGROV1 ovarian
  GI50: 26 µM
  TGI: 78.7 µM
EKVX NSCLC
  GI50: > 100 µM
  TGI: > 100 µM
T-47D breast
  GI50: > 100 µM
  TGI: > 100 µM
RPMI-8226 leukemia
  GI50: 26.8 µM
  TGI: > 82.4 µM
HCT-15 colon
  GI50: 55.7 µM
  TGI: > 95.4 µM
HS 578T breast
  GI50: > 100 µM
  TGI: > 100 µM
CAKI-1 renal
  GI50: 93.3 µM
  TGI: > 100 µM
LOX IMVI melanoma
  GI50: 1.09 µM
  TGI: 5.66 µM
RXF 393 renal
  GI50: 23.4 µM
  TGI: 67 µM
NCI-H522 lung
  GI50: 29 µM
  TGI: 46 µM
DMS 273 small cell lung
  GI50: 30.6 µM
  TGI: > 100 µM
OVCAR-8 ovarian
  GI50: 24.8 µM
  TGI: 65.1 µM
SR leukemia
  GI50: 18.4 µM
  TGI: > 83.5 µM
OVCAR-5 ovarian
  GI50: > 100 µM
  TGI: > 100 µM
M14 melanoma
  GI50: 37.8 µM
  TGI: > 74.9 µM
M19-MEL melanoma
  GI50: 19.9 µM
  TGI: 37 µM
HOP-62 NSCLC
  GI50: > 95.3 µM
  TGI: > 100 µM
MALME-3M melanoma
  GI50: 27.9 µM
  TGI: 62.3 µM
HT29 colon
  GI50: 42.6 µM
  TGI: > 100 µM
ACHN renal
  GI50: 34.8 µM
  TGI: > 65.6 µM
XF 498 CNS
  GI50: > 100 µM
  TGI: > 100 µM
SK-MEL-28 melanoma
  TGI: > 46.9 µM
BT-549 breast
  GI50: 51.4 µM
  TGI: > 100 µM
SNB-75 CNS
  GI50: > 100 µM
  TGI: > 100 µM
PC-3 prostate
  GI50: 98.9 µM
  TGI: > 100 µM
TK-10 renal
  GI50: > 100 µM
  TGI: > 100 µM
MOLT-4 leukemia
  GI50: 26.5 µM
  TGI: 68.1 µM
LXFL 529 NSCLC
  GI50: 15.6 µM
  TGI: 29.4 µM
HOP-92 NSCLC
  GI50: > 100 µM
  TGI: > 100 µM
CCRF-CEM leukemia
  GI50: 24.4 µM
  TGI: > 89.8 µM
NCI/ADR-RES ovarian
  GI50: > 100 µM
  TGI: > 100 µM
HOP-18 NSCLC
  GI50: > 52.8 µM
  TGI: > 85.1 µM
SN12C renal
  GI50: 76.3 µM
  TGI: > 100 µM
MDA-MB-231 breast
  GI50: > 100 µM
  TGI: > 100 µM
UO-31 renal
  GI50: 42.7 µM
  TGI: > 78.4 µM
DU-145 prostate
  GI50: 93.3 µM
  TGI: > 100 µM
SK-MEL-2 melanoma
  GI50: > 71.1 µM
  TGI: > 100 µM
OVCAR-3 ovarian
  GI50: 40.6 µM
  TGI: > 100 µM
DMS 114 small cell lung
  GI50: 20.1 µM
  TGI: 45.2 µM
A498 renal
  GI50: > 100 µM
  TGI: > 100 µM
SF-295 CNS
  GI50: 44.4 µM
  TGI: > 100 µM
COLO 205 colon
  GI50: 49.9 µM
  TGI: > 70.4 µM
OVCAR-4 ovarian
  GI50: > 47.9 µM
  TGI: > 71.9 µM
DLD-1 colon
  GI50: 19.8 µM
  TGI: 45 µM
